Test results as given in US9538774B2, “Method of feeding livestock to improve carcass characteristics” (Value-Added Science & Technology, LLC., priority 2012, dated 2017).
“Also recorded” adds a separate entry of the source.

Legend:
swine = conditions: cited from earlier work
[1] = tested on: commercial finishing pigs; test: Example 2 feeding study: CPFA with and without ractopamine in a 40% DDGS diet; assay type: in vivo
Procedure: A second study was conducted to evaluate the effects of supplementation of CPFA, with and without ractopamine, in a diet containing a high level (40%) of DDGS, on growth performance, carcass characteristics, meat and fat quality in commercial finishing pigs. The experimental diets over a six-week feeding period were a control diet without CPFA and a diet containing 0.0375% CPFA for six weeks; then for the last three weeks a diet was fed that included ractopamine at 4.5 grams per ton for each of the control and CPFA diets. (See FIG. 4). CPFA was added to replace choice white grease in the control diet. As discussed below, no treatment effects on growth performance were observed nor for HCW, dressing percentage or loin muscle, ultimate pH, color or marbling.
Pig body weight (BW) on a pen basis was measured initially and at the end of weeks 3 and 6 to calculate average daily gain (ADG). On each weigh day, feed disappearance was measured to calculate average daily feed intake (ADFI) of pigs on pen basis. Pen ADG and ADFI were, in turn, used to calculate feed conversion ratio (F:G).
Pigs were all harvested on the same day and also weighed individually one day before harvest to obtain a final live BW. HCW was measured on carcasses immediately after harvest. Live BW and HCW of pigs were used to calculate dressing percentage using the following equation: dressing %=(HCW/live BW)×100. Backfat (BF) and loin depth (LD) were measured between the 3rd and 4th rib on each carcass using Fat-O-Meater (Generation II). Percentage of fat-free carcass lean was calculated by Fat-O-Meater using the values of backfat depth and loin depth.
One barrow and one gilt from each pen weighing closest to the mean BW of their pen were selected for evaluation of meat and belly fat quality. Twenty-four hours after carcasses were chilled at 4° C., pH of loin muscle (LM) was measured at the 10th rib using a pH meter. The pH meter was calibrated at the temperature of the LM with pH 4 and 7 buffers. After pH measurement, carcasses were fabricated. Loin muscle samples at the 10th rib were collected for evaluation of meat quality.
Each LM sample was separated into two equal halves, and vacuum-packaged and frozen at −20° C. until analysis. One section of LM sample was measured for Minolta color (L*: lightness; a*: redness; b*: yellowness), loin purge, chop purge, and Instron force (a measurement correlated with tenderness and chewiness). Japanese color score (1=extremely pale to 6=extremely dark; NPPC, 2000) and marbling score (1=1% intramuscular fat to 10=10% intramuscular fat; NPPC, 2000) were also determined by trained panelists.
The other section of the LM sample was used for sensory evaluation. Sensory assessment was performed according to the procedure described by the American Meat Science Association (1995). Samples of LM were thawed at 4° C. overnight and cut into chops approximately 1 inch thick. The chops were weighed before and immediately after cooking to determine cooking loss. After cooking, trained panelists evaluated chops for juiciness, tenderness, chewiness, flavor and off-flavor using a 10-point scale (1=extremely dry, tough, not chewy, none, or none, to 10=extremely juicy, tender, chewy, intense, or intense, respectively). […]
To determine the CPFA residue in carcass fat, each of 6 (3 barrows, 3 gilts) belly fat samples from the third section were randomly selected in control and experimental treatments. Samples were sent for analysis of individual CPFA using HPLC according to the method described by Wood (1986).
All data were analyzed using the MIXED procedure of SAS Inst. Inc. (Cary, N.C.). Pen was used as the experimental unit for all responses. The statistical model included the fixed effects of CPFA, ractopamine, CPFA×ractopamine interactions, and random effect of block. Live BW before harvest and sex were used as the covariates in analysis of carcass characteristics, meat and fat quality, if the effects of these covariates were significant (P<0.05). […]

[2] = 10 or 20 ppm for 25 to 41 days pre-slaughter (Carr et. al., 2005)
[3] = 10 ppm for 28 days (Stoller et. al., 2003)
[4] = 10 ppm for 35 days prior to slaughter (Aalhus, et. al., 1990)
[5] = 40% DDGS diet, CPFA 0.0375% six weeks, ractopamine 4.5 grams per ton last three weeks
[6] = loin muscle, ractopamine 4.5 grams/ton
[7] = ractopamine 4.5 grams per ton last three weeks
[8] = sensory panel, 10-point scale, each additive alone
[9] = sensory panel, ractopamine 4.5 grams/ton

In the case of `CC(CCc1ccc(O)cc1)NCC(O)c1ccc(O)cc1` (centres unmarked) [ractopamine], the color scores (swine; [2]) is listed as “poorer”, the flavor scores (swine; [2]) is listed as “reduced” and the tenderness (swine; [2]) is listed as “reduced”. For the same compound, the “Instron force of loin muscle” value (swine; [3]) was “increased”, the chewiness score (swine; [3]) was “increased” and the color score (swine; [3]) was “reduced”. For the same compound, the tenderness score (swine; [3]) was “reduced”, the “hardness of fat samples taken from the loin” value (swine; [4]) was “reduced” and the “sheer force of loin muscle” value (swine; [4]) was “increased”. For the same compound, the “average daily feed intake (ADFI)” value [1, 5] was “affected”, the “average daily gain (ADG)” value [1, 5] was “affected; also recorded: statistically significant positive effects” and the “feed conversion ratio (F:G)” value [1, 5] was “statistically significant positive effects”. For the same compound, the “weight at harvest (final BW)” value [1, 5] was “affected; also recorded: statistically significant positive effects”, the “Instron force of LM samples” value ([1]; loin muscle, CPFA 0.0375% six weeks, ractopamine 4.5 grams/ton) was “did affect; also recorded: increase” and the “lightness of LM” value [1, 6] was “did affect”. For the same compound, the “redness (Minolta a*) of LM” value [1, 6] was “did affect; also recorded: reductions”, the “yellowness (Minolta b*) of LM” value [1, 6] was “did affect; also recorded: reductions” and the back fat [1, 7] was “reduction”. The “increase of the measure of carcass lean” value [1, 7] was 2%, the loin depth [1, 7] was “increase” and the carcass lean % ([1]; ractopamine 4.5 grams/ton, effect in words) was “statistically significant positive effects”. The juiciness score [1, 8] was “Neither CPFA nor ractopamine alone affected”, the off-flavor score [1, 8] was “Neither CPFA nor ractopamine alone affected” and the chewiness [1, 9] was “increased”. The flavor score [1, 9] was “reduction” and the tenderness [1, 9] was “reduced”.
